Where two headings read alike, the source gives them in different places.
Experiments:
Type in all cases: cell-based
M3 muscarinic receptor = target: T1, M3 muscarinic receptor (Homo sapiens, UniProt P20309); assay: Functional mobilization of intracellular calcium (FLIPR) in CHO cells expressing M3; conditions: for M3 Activity: CHO cells expressing M3, FLIPR calcium assay; for Emax: CHO; for EC50: CHO cells expressing M3, FLIPR calcium
T1 construct: expressed in transfected cells; host or cells: CHO (M3-CHO)
T1 sequence (P20309 whole entry): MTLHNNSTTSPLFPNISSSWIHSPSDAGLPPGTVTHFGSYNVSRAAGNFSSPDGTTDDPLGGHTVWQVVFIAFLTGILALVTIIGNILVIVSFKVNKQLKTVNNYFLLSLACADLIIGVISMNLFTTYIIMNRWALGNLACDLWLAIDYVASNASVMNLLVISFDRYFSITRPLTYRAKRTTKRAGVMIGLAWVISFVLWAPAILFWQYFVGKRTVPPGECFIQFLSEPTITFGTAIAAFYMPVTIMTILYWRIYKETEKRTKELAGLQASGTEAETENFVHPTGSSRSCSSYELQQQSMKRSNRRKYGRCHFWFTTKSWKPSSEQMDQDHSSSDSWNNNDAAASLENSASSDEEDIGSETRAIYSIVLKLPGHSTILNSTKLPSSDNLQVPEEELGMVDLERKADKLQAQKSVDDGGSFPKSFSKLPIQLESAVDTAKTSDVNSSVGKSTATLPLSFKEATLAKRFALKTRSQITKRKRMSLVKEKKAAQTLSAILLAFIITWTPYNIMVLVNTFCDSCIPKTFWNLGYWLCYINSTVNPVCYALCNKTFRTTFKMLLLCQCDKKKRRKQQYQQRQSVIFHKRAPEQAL
Experimental: (§1) Functional Mobilization of Intracellular Calcium to Determine Muscarinic Receptor Activity:
(§2) CHO cells expressing muscarinic receptors (M1 to M5) are grown as monolayers in tissue culture flasks at 37° C. in a humidified atmosphere containing 5% CO2 and passaged every 3-5 days. The growth media is Dulbecco's modified eagles medium (DMEM, Gibco Cat# 12430-054), containing 25 mM Hepes and supplemented with Fetal Bovine Serum (Hyclone, cat# SH30071.03), 0.1 mM of MEM non-essential amino acids (GIBCO, Cat# 11140-050), 1 mM MEM Sodium Pyruvate (GIBCO Cat# 11360-070) and 100 units/ml of Penicillin G and 100 μg/ml of Streptomycin (GIBCO Cat# 15140-122). The recombinant muscarinic receptor cell lines are grown under antibiotic pressure with media containing 25 μg/ml zeocin and 500 μg/ml G418 (M1-CHO), 4 μg/ml puromycin, 50 μg/ml zeocin and 2.5 μg/ml blasticidin (M2 and M4-CHO) or 50 μg/ml zeocin and 4 μg/ml puromycin (M3 and M5-CHO).
(§3) Cells are harvested at 80-90% confluence using Versene (GIBCO Cat# 15040-066), collected by centrifugation and seeded 18-24 hrs prior to running the calcium assay at a density of 5,000-10,000 cells/well in […], clear-bottomed 384-well plates (BD Biocoat, poly-D-lysine, Cat#356663). The day of the experiment, the cells are washed with a plate washer (Bioteck Instruments, ELX 405) using bath 1 buffer (140 mM NaCl, 4,5 mM KCl, 2 mM CaCl2, 1 mM MgCl2, 10 mM Hepes-Na, 10 mM Glucose, pH 7.4, with NaOH) containing 1 mM Probenecid. Next, the calcium dye Fluo-3 (25 μl/well of Fluo-3 AM at 4 μM, Molecular Probes F-1241, in Bath 1 buffer containing 1 mM Probenecid) is added to the 25 μl of Bath 1 remaining in each well after the plate wash and the dye is loaded at 37° C. in the tissue culture incubator for 60-90 min. The fluorescent dye is removed using the plate washer with Bath 1 containing 1 mM Probenecid, leaving 25 μl/well of this solution after the wash. Alternatively, cells can be loaded with the calcium indicator from Molecular Devices (Calcium 3 Assay Reagents, Cat #R7181) adding 5 μl of a 5× solution dye in Bath 1 containing 1 mM Probenecid (10 ml per dye flask cat#R7182 to generate a solution […]) to 20 μl of the same buffer. After loading for 60 min, the experiment can be run without having to remove the dye.
(§4) Compounds are prepared at a 2× fold concentration in a 96-well plate (round bottom, Costar Corning cat#3656), by reconstituting the pre-spotted compounds in bath 1 containing 1 mM probenecid. The final concentration DMSO is 0.5%, and the amount of DMSO is normalized across the assay plate. To determine an agonist action of the compounds on muscarinic receptors, the reconstituted compounds are added (25 μl compound/well) to the cell assay plate (containing 25 μl/well) using the multi-channel robotic system of the FLIPR 3 Instrument (Molecular Devices, Sunnyvale, Calif.). To determine a functional inhibitory action of the compounds on muscarinic receptors, the reconstituted compounds are added (25 μl compound/well) to the assay plate and pre-incubated for 15 min prior to adding 25 μl of Carbachol at 3× the EC80 for each muscarinic subtype. Alternatively, the compounds can be co-applied simultaneously with the agonist. In both assay modes, the fluorescence is recorded for 60 sec (excitation wavelength is […] and emission wavelength 540 nm) using the FLIPR 3 instrument.
(§5) The potency, efficacy and selectivity of the muscarinic compounds were evaluated by screening the compound activity across the whole family (M1 to M5 cells). Compounds were also screened for activity on other proteins such as other GPCRs and ion channels to determine selectivity on M4 receptors.

M1 muscarinic receptor = target: T2, M1 muscarinic receptor (Homo sapiens, UniProt P11229); assay: Functional mobilization of intracellular calcium (FLIPR) in CHO cells expressing M1; conditions: for M1 Activity: CHO cells expressing M1, FLIPR calcium assay; for Emax: CHO; for EC50: CHO cells expressing M1, FLIPR calcium
T2 construct: expressed in transfected cells; host or cells: CHO (M1-CHO)
T2 sequence (P11229 1-460): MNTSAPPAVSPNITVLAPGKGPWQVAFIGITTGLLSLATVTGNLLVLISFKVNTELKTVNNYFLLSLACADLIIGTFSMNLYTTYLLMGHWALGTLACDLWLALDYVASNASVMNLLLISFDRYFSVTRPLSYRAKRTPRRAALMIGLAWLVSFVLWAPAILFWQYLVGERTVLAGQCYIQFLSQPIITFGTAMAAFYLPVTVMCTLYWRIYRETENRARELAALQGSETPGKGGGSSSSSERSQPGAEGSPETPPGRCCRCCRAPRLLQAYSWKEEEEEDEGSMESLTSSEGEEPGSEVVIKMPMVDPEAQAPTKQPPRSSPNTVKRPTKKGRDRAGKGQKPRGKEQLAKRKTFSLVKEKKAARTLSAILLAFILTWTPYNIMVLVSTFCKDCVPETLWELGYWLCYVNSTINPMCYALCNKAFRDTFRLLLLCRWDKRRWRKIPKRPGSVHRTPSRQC
Experimental: as §1, §2, §3, §4, §5

M2 muscarinic receptor = target: T3, M2 muscarinic receptor (Homo sapiens, UniProt P08172); assay: Functional mobilization of intracellular calcium (FLIPR) in CHO cells expressing M2; conditions: for M2 Activity: CHO cells expressing M2, FLIPR calcium assay; for Emax: CHO; for EC50: CHO cells expressing M2, FLIPR calcium
T3 construct: expressed in transfected cells; host or cells: CHO (M2-CHO)
T3 sequence (P08172 1-466): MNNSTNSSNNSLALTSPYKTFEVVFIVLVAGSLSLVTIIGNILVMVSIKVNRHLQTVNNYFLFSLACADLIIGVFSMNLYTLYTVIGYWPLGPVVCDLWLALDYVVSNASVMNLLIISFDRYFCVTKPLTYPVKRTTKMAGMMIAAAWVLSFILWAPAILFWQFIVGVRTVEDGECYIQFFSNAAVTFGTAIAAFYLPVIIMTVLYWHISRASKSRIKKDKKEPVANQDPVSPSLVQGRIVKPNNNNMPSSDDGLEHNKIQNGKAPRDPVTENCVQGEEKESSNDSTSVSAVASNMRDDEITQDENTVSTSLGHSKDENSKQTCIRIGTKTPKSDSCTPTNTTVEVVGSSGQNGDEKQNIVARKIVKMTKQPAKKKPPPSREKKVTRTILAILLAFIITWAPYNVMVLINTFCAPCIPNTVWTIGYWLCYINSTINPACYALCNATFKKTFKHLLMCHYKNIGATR
Experimental: as §1, §2, §3, §4, §5

M4 muscarinic receptor = target: T4, M4 muscarinic receptor (Homo sapiens, UniProt P08173); assay: Functional mobilization of intracellular calcium (FLIPR) in CHO cells expressing M4; conditions: for M4 Activity: CHO cells expressing M4, FLIPR calcium assay; for Emax: CHO; for EC50: CHO cells expressing M4, FLIPR calcium
T4 construct: expressed in transfected cells; host or cells: CHO (M4-CHO)
T4 sequence (P08173 1-479): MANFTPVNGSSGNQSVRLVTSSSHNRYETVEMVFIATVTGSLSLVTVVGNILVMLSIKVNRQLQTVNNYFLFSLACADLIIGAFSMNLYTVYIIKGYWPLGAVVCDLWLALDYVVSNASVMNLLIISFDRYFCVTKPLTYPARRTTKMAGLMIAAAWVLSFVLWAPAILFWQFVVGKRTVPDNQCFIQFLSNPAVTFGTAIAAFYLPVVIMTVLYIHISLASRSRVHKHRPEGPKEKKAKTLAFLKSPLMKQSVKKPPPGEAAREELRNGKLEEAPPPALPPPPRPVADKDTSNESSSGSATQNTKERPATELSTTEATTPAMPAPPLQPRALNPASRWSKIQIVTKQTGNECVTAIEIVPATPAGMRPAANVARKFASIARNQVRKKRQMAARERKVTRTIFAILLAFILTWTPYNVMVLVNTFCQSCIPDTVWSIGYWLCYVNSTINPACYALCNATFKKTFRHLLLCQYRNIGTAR
Experimental: as §1, §2, §3, §4, §5

[1] = 100% efficacy = maximum response obtained with the Carbachol control
[2] = 100% = maximum response obtained with the Carbachol control, read-out: M3 Efficacy
[3] = 100% = maximum response obtained with the Carbachol control, read-out: M1 Efficacy
[4] = 100% = maximum response obtained with the Carbachol control, read-out: M2 Efficacy
[5] = 100% = maximum response obtained with the Carbachol control, read-out: M4 Efficacy

Row | Compound | M3 Activity (M3 muscarinic receptor) | Emax (M3 muscarinic receptor; [1]) | M1 Activity (M1 muscarinic receptor) | Emax (M1 muscarinic receptor; [1]) | M2 Activity (M2 muscarinic receptor) | Emax (M2 muscarinic receptor; [1]) | M4 Activity (M4 muscarinic receptor) | Emax (M4 muscarinic receptor; [1]) | EC50 (M3 muscarinic receptor) | Emax (M3 muscarinic receptor; [2]) | EC50 (M1 muscarinic receptor) | Emax (M1 muscarinic receptor; [3]) | EC50 (M2 muscarinic receptor) | Emax (M2 muscarinic receptor; [4]) | EC50 (M4 muscarinic receptor) | Emax (M4 muscarinic receptor; [5])
1 | CCOCC(=O)N[C@H]1CCC2(CCN(CCC(C)(C)C)CC2)c2cc(F)ccc21 [compound 196] | + (activity was measured to be greater than 5.0 μM) | < 25% | +++ (activity was measured to be less than 2.0 μM) | 25 to 100% | +++ (activity was measured to be less than 2.0 μM) | 25 to 100% | +++ (activity was measured to be less than 2.0 μM) | 25 to 100% |  |  |  |  |  |  |  | 
2 | CC(C)(C)CCN1CCC2(CC[C@H](N3C(=O)CCC3=O)c3ccccc32)CC1 [compound 102] |  |  |  |  |  |  |  |  | > 5000 nM | < 25% | 2000 to 5000 nM | 25 to 100% | > 5000 nM | < 25% | < 2000 nM | 25 to 100%
3 | CC(C)(C)CCN1CCC2(CC[C@H](NC(=O)Cc3cccnc3)c3ccccc32)CC1 [compound 195] | + (activity was measured to be greater than 5.0 μM) | < 25% | +++ (activity was measured to be less than 2.0 μM) | 25 to 100% | +++ (activity was measured to be less than 2.0 μM) | 25 to 100% | +++ (activity was measured to be less than 2.0 μM) | 25 to 100% |  |  |  |  |  |  |  | 
4 | CC(C)(C)CCN1CCC2(CC[C@H](NC(=O)c3cccnc3)c3ccccc32)CC1 [compound 108] |  |  |  |  |  |  |  |  | > 5000 nM | < 25% | < 2000 nM | 25 to 100% | < 2000 nM | < 25% | < 2000 nM | 25 to 100%
5 | CN([C@H]1CCC2(CCN(CCC(C)(C)C)CC2)c2ccccc21)S(C)(=O)=O [compound 161] |  |  |  |  |  |  |  |  | > 5000 nM | < 25% | < 2000 nM | 25 to 100% | > 5000 nM | < 25% | < 2000 nM | 25 to 100%
6 | CC(C)(C)CCN1CCC2(CC1)CC(F)(F)C(O)c1ccccc12 (stereo not drawn) [compound 120] |  |  |  |  |  |  |  |  | > 5000 nM | < 25% | < 2000 nM | 25 to 100% | < 2000 nM | 25 to 100% | < 2000 nM | 25 to 100%
7 | CCN(C(=O)CCOC)[C@H]1CCC2(CCN(CCC(C)(C)C)CC2)c2ccccc21 [compound 221] | + (activity was measured to be greater than 5.0 μM) | < 25% | ++ (activity was measured to be from 2.0 μM to 5.0 μM) | 25 to 100% | + (activity was measured to be greater than 5.0 μM) | < 25% | +++ (activity was measured to be less than 2.0 μM) | 25 to 100% |  |  |  |  |  |  |  | 
8 | CC(C)(C)OC(=O)N1CCC2(CC1)C[C@H](NC(=O)c1ccccc1)c1ccccc12 [compound 255] | + (activity was measured to be greater than 5.0 μM) | < 25% | + (activity was measured to be greater than 5.0 μM) | < 25% | + (activity was measured to be greater than 5.0 μM) | < 25% | + (activity was measured to be greater than 5.0 μM) | < 25% |  |  |  |  |  |  |  | 
9 | CCOc1ccc(CN2CCC3(CC[C@H](NC(C)=O)c4ccccc43)CC2)cc1 [compound 234] | + (activity was measured to be greater than 5.0 μM) | < 25% | ++ (activity was measured to be from 2.0 μM to 5.0 μM) | 25 to 100% | + (activity was measured to be greater than 5.0 μM) | < 25% | ++ (activity was measured to be from 2.0 μM to 5.0 μM) | 25 to 100% |  |  |  |  |  |  |  | 
10 | CC(C)(C)CCN1CCC2(CC[C@@H](NC(=O)Cc3cccnc3)c3ccc(F)cc32)CC1 [compound 65] |  |  |  |  |  |  |  |  | > 5000 nM | < 25% | < 2000 nM | 25 to 100% | 2000 to 5000 nM | < 25% | < 2000 nM | 25 to 100%
11 | CC(=O)N(C)CCC(=O)N[C@H]1CCC2(CCN(CCC(C)(C)C)CC2)c2ccccc21 [compound 171] |  |  |  |  |  |  |  |  | > 5000 nM | < 25% | < 2000 nM | 25 to 100% | < 2000 nM | 25 to 100% | < 2000 nM | 25 to 100%
12 | COC(=O)CN(C(C)=O)[C@H]1CCC2(CCN(CCC(C)(C)C)CC2)c2ccccc21 [compound 50] |  |  |  |  |  |  |  |  | > 5000 nM | < 25% | > 5000 nM | 25 to 100% | > 5000 nM | < 25% | < 2000 nM | 25 to 100%
